Data reported in ChEMBL document CHEMBL2034968, “Discovery of novel urea-based hepatitis C protease inhibitors with high potency against protease-inhibitor-resistant mutants” (J Med Chem, 2012).

Assays:
[1] = system: Hepatitis C virus; test: Antiviral activity against Hepatitis C virus subtype 1b harboring protease R155K mutant by transient replicon assay; format: functional, organism-based, Hepacivirus hominis; conditions: genotype 1b
[2] = system: Hepatitis C virus; test: Antiviral activity against Hepatitis C virus subtype 1b harboring protease D168A mutant by transient replicon assay; format: functional, organism-based, Hepacivirus hominis; conditions: genotype 1b
[3] = system: Hepatitis C virus; test: Antiviral activity against Hepatitis C virus subtype 1b harboring protease D168V mutant by transient replicon assay; format: functional, organism-based, Hepacivirus hominis; conditions: genotype 1b
[4] = system: Hepatitis C virus; test: Antiviral activity against Hepatitis C virus subtype 1b harboring protease A156S mutant by transient replicon assay; format: functional, organism-based, Hepacivirus hominis; conditions: genotype 1b
[5] = system: Hepatitis C virus; test: Antiviral activity against Hepatitis C virus subtype 1b harboring protease A156V mutant by transient replicon assay; format: functional, organism-based, Hepacivirus hominis; conditions: genotype 1b
[6] = system: Hepatitis C virus; test: Antiviral activity against Hepatitis C virus subtype 1a by stable replicon assay; format: functional, organism-based, Hepacivirus hominis
[7] = system: Hepatitis C virus; test: Antiviral activity against Hepatitis C virus subtype 1b by stable replicon assay; format: functional, organism-based, Hepacivirus hominis; conditions: genotype 1b
[8] = Inhibition of HCV 1a protease 1a domain; design: species or system Hepacivirus hominis
[9] = system: Hepatitis C virus; test: Antiviral activity against Hepatitis C virus subtype 1b harboring protease A156T mutant by transient replicon assay; format: functional, organism-based, Hepacivirus hominis; conditions: genotype 1b
[10] = system: Hepatitis C virus; test: Antiviral activity against wild type Hepatitis C virus subtype 1b by transient replicon assay; format: functional, organism-based, Hepacivirus hominis; conditions: genotype 1b
[11] = system: Hepatitis C virus; test: Resistance index, ratio of EC50 for Hepatitis C virus subtype 1b harboring protease D168V mutant to EC50 for wild type Hepatitis C virus subtype 1b; format: functional, Hepacivirus hominis, genotype 1b
[12] = system: Hepatitis C virus; test: Resistance index, ratio of EC50 for Hepatitis C virus subtype 1b harboring protease D168A mutant to EC50 for wild type Hepatitis C virus subtype 1b; format: functional, Hepacivirus hominis, genotype 1b
[13] = system: Hepatitis C virus; test: Resistance index, ratio of EC50 for Hepatitis C virus subtype 1b harboring protease R155K mutant to EC50 for wild type Hepatitis C virus subtype 1b; format: functional, Hepacivirus hominis, genotype 1b

| SMILES | EC50 [1] | EC50 [2] | EC50 [3] | EC50 [4] | EC50 [5] | EC50 [6] | EC50 [7] | IC50 [8] | EC50 [9] | EC50 [10] | Ratio EC50 [11] | Ratio EC50 [12] | Ratio EC50 [13] |
| --- | --- | --- | --- | --- | --- | --- | --- | --- | --- | --- | --- | --- | --- |
| COc1ccc2c(O[C@@H]3C[C@H]4C(=O)N[C@]5(C(=O)NS(=O)(=O)C6CC6)C[C@H]5/C=C\CCCCC[C@H](NC(=O)NCc5ccc6c(c5)B(O)OC6)C(=O)N4C3)cc(-c3nc(C(C)C)cs3)nc2c1C | 49 nM | 249 nM | 144 nM | 0.2 nM | 9 nM | 3.4 nM | 0.8 nM | 2 nM | 7 nM | 0.9 nM |  |  |  |
| COc1ccc2c(O[C@@H]3C[C@H]4C(=O)N[C@]5(C(=O)NS(=O)(=O)C6CC6)C[C@H]5/C=C\CCCCC[C@H](NC(=O)NCc5ccc(CO)c(O)c5)C(=O)N4C3)cc(-c3nc(C(C)C)cs3)nc2c1C |  |  |  |  |  | 15.5 nM | 1.1 nM | 0.5 nM |  |  |  |  |  |
| COc1ccc2c(O[C@@H]3C[C@H]4C(=O)N[C@]5(C(=O)NS(=O)(=O)C6CC6)C[C@H]5/C=C\CCCCC[C@H](NC(N)=O)C(=O)N4C3)cc(-c3nc(C(C)C)cs3)nc2c1C | 66 nM | 873 nM | 2260 nM |  | 16 nM | 1.8 nM | 0.5 nM | 2 nM | 6 nM | 0.4 nM |  |  |  |
| COc1ccc2c(O[C@@H]3C[C@H]4C(=O)N[C@]5(C(=O)NS(=O)(=O)C6CC6)C[C@H]5/C=C\CCCCC[C@H](NC(=O)N(C)C)C(=O)N4C3)cc(-c3nc(C(C)C)cs3)nc2c1C | 10 nM | 36 nM | 57 nM |  | 5 nM | 0.3 nM | 0.1 nM | 2 nM | 1 nM | 0.04 nM |  |  |  |
| CCN(CC)C(=O)N[C@H]1CCCCC/C=C\[C@@H]2C[C@@]2(C(=O)NS(=O)(=O)C2CC2)NC(=O)[C@@H]2C[C@@H](Oc3cc(-c4nc(C(C)C)cs4)nc4c(C)c(OC)ccc34)CN2C1=O | 15 nM | 56 nM | 131 nM | 0.5 nM | 8 nM | 0.9 nM | 0.7 nM | 1 nM | 2 nM | 0.1 nM |  |  |  |
| COc1ccc2c(O[C@@H]3C[C@H]4C(=O)N[C@]5(C(=O)NS(=O)(=O)C6CC6)C[C@H]5/C=C\CCCCC[C@H](NC(=O)N5CCOCC5)C(=O)N4C3)cc(-c3nc(C(C)C)cs3)nc2c1C | 4 nM | 17 nM | 33 nM | 0.03 nM | 2 nM | 0.3 nM | 0.5 nM | 2 nM | 0.2 nM | 0.01 nM |  |  |  |
| COc1ccc2c(O[C@@H]3C[C@H]4C(=O)N[C@]5(C(=O)NS(=O)(=O)C6CC6)C[C@H]5/C=C\CCCCC[C@H](NC(=O)N5CCCC5)C(=O)N4C3)cc(-c3nc(C(C)C)cs3)nc2c1C | 15 nM | 86 nM | 200 nM | 0.2 nM | 9 nM | 0.4 nM | 0.4 nM | 4 nM | 2 nM | 0.1 nM |  |  |  |
| COc1ccc2c(O[C@@H]3C[C@H]4C(=O)N[C@]5(C(=O)NS(=O)(=O)C6CC6)C[C@H]5/C=C\CCCCC[C@H](NC(=O)N5CCC(C)(C)C5)C(=O)N4C3)cc(-c3nc(C(C)C)cs3)nc2c1C | 17 nM | 28 nM | 138 nM |  | 11 nM | 0.6 nM | 0.5 nM | 2 nM | 2 nM | 0.1 nM |  |  |  |
| COc1ccc2c(O[C@@H]3C[C@H]4C(=O)N[C@]5(C(=O)NS(=O)(=O)C6CC6)C[C@H]5/C=C\CCCCC[C@H](NC(=O)N5CCC(O)CC5)C(=O)N4C3)cc(-c3nc(C(C)C)cs3)nc2c1C | 7 nM | 42 nM | 154 nM |  | 9 nM | 0.6 nM | 0.3 nM | 2 nM | 2 nM | 0.1 nM |  |  |  |
| COc1ccc2c(O[C@@H]3C[C@H]4C(=O)N[C@]5(C(=O)NS(=O)(=O)C6CC6)C[C@H]5/C=C\CCCCC[C@H](NC(=O)N5CCC(CO)CC5)C(=O)N4C3)cc(-c3nc(C(C)C)cs3)nc2c1C | 14 nM | 47 nM | 141 nM |  | 9 nM | 0.7 nM | 0.3 nM | 1 nM | 2 nM | 0.1 nM |  |  |  |
| COc1ccc2c(O[C@@H]3C[C@H]4C(=O)N[C@]5(C(=O)NS(=O)(=O)C6CC6)C[C@H]5/C=C\CCCCC[C@H](NC(=O)N5CCC(CC(N)=O)CC5)C(=O)N4C3)cc(-c3nc(C(C)C)cs3)nc2c1C | 65 nM | 431 nM |  | 0.1 nM | 10 nM | 5.6 nM | 1.5 nM | 2 nM | 3 nM | 0.2 nM |  |  |  |
| COc1ccc2c(O[C@@H]3C[C@H]4C(=O)N[C@]5(C(=O)NS(=O)(=O)C6CC6)C[C@H]5/C=C\CCCCC[C@H](NC(=O)N5CCC(CC(=O)O)CC5)C(=O)N4C3)cc(-c3nc(C(C)C)cs3)nc2c1C | 21 nM | 7 nM | 161 nM | 0.2 nM | 3 nM | 2.2 nM | 0.8 nM | 0.9 nM | 1 nM | 0.1 nM |  |  |  |
| COc1ccc2c(O[C@@H]3C[C@H]4C(=O)N[C@]5(C(=O)NS(=O)(=O)C6CC6)C[C@H]5/C=C\CCCCC[C@H](NC(=O)N5CC6CCCC6C5)C(=O)N4C3)cc(-c3nc(C(C)C)cs3)nc2c1C (stereo partly specified) | 11 nM | 23 nM | 83 nM | 0.1 nM | 15 nM | 0.3 nM | 0.3 nM | 5 nM | 1 nM | 0.01 nM |  |  |  |
| COc1ccc2c(O[C@@H]3C[C@H]4C(=O)N[C@]5(C(=O)NS(=O)(=O)C6CC6)C[C@H]5/C=C\CCCCC[C@H](NC(=O)N5CCC(c6ccccc6)CC5)C(=O)N4C3)cc(-c3nc(C(C)C)cs3)nc2c1C | 69 nM | 182 nM | 386 nM |  | 30 nM | 1.6 nM | 0.9 nM | 7 nM | 5 nM | 0.2 nM |  |  |  |
| COc1ccc2c(O[C@@H]3C[C@H]4C(=O)N[C@]5(C(=O)NS(=O)(=O)C6CC6)C[C@H]5/C=C\CCCCC[C@H](NC(=O)N5C[C@@H](C)O[C@@H](C)C5)C(=O)N4C3)cc(-c3nc(C(C)C)cs3)nc2c1C | 233 nM | 423 nM | 2090 nM | 1 nM | 69 nM | 10.6 nM | 1.2 nM | 2 nM | 23 nM | 0.7 nM |  |  |  |
| COc1ccc2c(O[C@@H]3C[C@H]4C(=O)N[C@]5(C(=O)NS(=O)(=O)C6CC6)C[C@H]5/C=C\CCCCC[C@H](NC(=O)N5CCS(=O)(=O)CC5)C(=O)N4C3)cc(-c3nc(C(C)C)cs3)nc2c1C | 115 nM | 372 nM | 1420 nM | 0.3 nM | 38 nM | 2.3 nM | 0.5 nM | 2 nM | 5 nM | 0.4 nM |  |  |  |
| COc1ccc2c(O[C@@H]3C[C@H]4C(=O)N[C@]5(C(=O)NS(=O)(=O)C6CC6)C[C@H]5/C=C\CCCCC[C@H](NC(=O)N5CCC(N6CCCC6)CC5)C(=O)N4C3)cc(-c3nc(C(C)C)cs3)nc2c1C | 102 nM | 1620 nM |  | 1.9 nM | 98 nM | 0.6 nM | 0.5 nM | 2 nM | 12 nM | 0.5 nM |  |  |  |
| COc1ccc2c(O[C@@H]3C[C@H]4C(=O)N[C@]5(C(=O)NS(=O)(=O)C6CC6)C[C@H]5/C=C\CCCCC[C@H](NC(=O)N5CCN(C6CCCC6)CC5)C(=O)N4C3)cc(-c3nc(C(C)C)cs3)nc2c1C | 60 nM | 169 nM | 477 nM |  | 32 nM | 0.5 nM | 0.3 nM | 2 nM | 5 nM | 0.1 nM |  |  |  |
| COc1ccc2c(O[C@@H]3C[C@H]4C(=O)N[C@]5(C(=O)NS(=O)(=O)C6CC6)C[C@H]5/C=C\CCCCC[C@H](NC(=O)N(C)C(C)(C)C)C(=O)N4C3)cc(-c3nc(C4CC4)cs3)nc2c1C | 28 nM | 71 nM | 84 nM | 0.4 nM | 9 nM | 1 nM | 1 nM |  | 7 nM | 0.2 nM | <1000 | <1000 | <1000 |
| CC(C)(C)NC(=O)N[C@H](C(=O)N1C[C@H]2[C@@H]([C@H]1C(=O)NC(CC1CCC1)C(=O)C(N)=O)C2(C)C)C(C)(C)C (stereo partly specified) [BOCEPREVIR] | 700 nM |  | 40 nM |  |  |  |  |  | 12000 nM | 400 nM |  |  |  |
| COc1ccc2c(O[C@@H]3C[C@H]4C(=O)N[C@]5(C(=O)O)C[C@H]5/C=C\CCCCC[C@H](NC(=O)OC5CCCC5)C(=O)N4C3)cc(-c3csc(NC(C)C)n3)nc2c1 [CILUPREVIR] | 241 nM | 205 nM | 438 nM | 3 nM | 627 nM | 2.2 nM | 0.5 nM | 2 nM | 604 nM | 1 nM |  |  |  |
| CC[C@@H]1C[C@]1(NC(=O)[C@@H]1C[C@@H]2CN1C(=O)[C@H](C(C)(C)C)NC(=O)OCC(C)(C)CCCCc1cccc3c1CN(C3)C(=O)O2)C(=O)NS(=O)(=O)C1CC1 [VANIPREVIR] |  |  |  |  |  |  |  |  |  | 1.6 nM |  |  |  |
